Experimental data taken from patent US20260285850A1, “SUBSTITUTED OXAZOLIDINONES AND IMIDAZOLINONES AS HERBICIDES” (FMC CORPORATION, priority 2023, published 2026).

How the values were obtained:
Type in all cases: in vivo
[1] = test system: barnyardgrass (Echinochloa crus-galli); test: Test A preemergence soil spray, visual injury rating 0-100; settings: 10 days, 0 = no effect, 100 = complete control
Summary of the method: (§1)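 Plants in a loam and sand soil blend were treated with each test chemical, in a non-phytotoxic solvent system including surfactant, either sprayed on seeded soil before emergence or applied after emergence at the one- to two-leaf stage. Ten days later in the greenhouse, plants were compared with untreated controls and visually rated from 0 (no effect) to 100 (complete control).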

[2] = test system: blackgrass (Alopecurus myosuroides); test: as above; settings: 10 days, 0 = no effect, 100 = complete control
Summary of the method: as §1

[3] = test system: corn (Zea mays); test: as above; settings: 10 days, 0 = no effect, 100 = complete control
Summary of the method: as §1

[4] = test system: green foxtail (Setaria viridis); test: as above; settings: 10 days, 0 = no effect, 100 = complete control
Summary of the method: as §1

[5] = test system: kochia (Bassia scoparia); test: as above; settings: 10 days, 0 = no effect, 100 = complete control
Summary of the method: as §1

[6] = test system: oat, wild (wild oat, Avena fatua); test: as above; settings: 10 days, 0 = no effect, 100 = complete control
Summary of the method: as §1

[7] = test system: palmer (palmer amaranth, palmer pigweed, Amaranthus palmeri); test: as above; settings: 10 days, 0 = no effect, 100 = complete control
Summary of the method: as §1

[8] = test system: ragweed (common ragweed, Ambrosia artemisiifolia); test: as above; settings: 10 days, 0 = no effect, 100 = complete control
Summary of the method: as §1

[9] = test system: ryegrass, Italian (italian ryegrass, Lolium multiflorum); test: as above; settings: 10 days, 0 = no effect, 100 = complete control
Summary of the method: as §1

[10] = test system: soybean (Glycine max); test: as above; settings: 10 days, 0 = no effect, 100 = complete control
Summary of the method: as §1

[11] = test system: wheat (Triticum aestivum); test: as above; settings: 10 days, 0 = no effect, 100 = complete control
Summary of the method: as §1

[12] = test system: barnyardgrass (Echinochloa crus-galli); test: Test A postemergence application, visual injury rating 0-100; settings: Postemergence, 10 days, 0 is no effect, 100 is complete control
Summary of the method: as §1

[13] = test system: blackgrass (Alopecurus myosuroides); test: as above; settings: Postemergence, 10 days, 0 is no effect, 100 is complete control
Summary of the method: as §1

[14] = test system: corn (Zea mays); test: as above; settings: Postemergence, 10 days, 0 is no effect, 100 is complete control
Summary of the method: as §1

[15] = test system: galium (catchweed bedstraw, Galium aparine); test: as above; settings: Postemergence, 10 days, 0 is no effect, 100 is complete control
Summary of the method: as §1

[16] = test system: green foxtail (Setaria viridis); test: as above; settings: Postemergence, 10 days, 0 is no effect, 100 is complete control
Summary of the method: as §1

[17] = test system: horseweed (Erigeron canadensis); test: as above; settings: Postemergence, 10 days, 0 is no effect, 100 is complete control
Summary of the method: as §1

[18] = test system: kochia (Bassia scoparia); test: as above; settings: Postemergence, 10 days, 0 is no effect, 100 is complete control
Summary of the method: as §1

[19] = test system: oat, wild (wild oat, Avena fatua); test: as above; settings: Postemergence, 10 days, 0 is no effect, 100 is complete control
Summary of the method: as §1

[20] = test system: palmer (palmer amaranth, palmer pigweed, Amaranthus palmeri); test: as above; settings: Postemergence, 10 days, 0 is no effect, 100 is complete control
Summary of the method: as §1

[21] = test system: ragweed (common ragweed, Ambrosia artemisiifolia); test: as above; settings: Postemergence, 10 days, 0 is no effect, 100 is complete control
Summary of the method: as §1

[22] = test system: ryegrass, Italian (italian ryegrass, Lolium multiflorum); test: as above; settings: Postemergence, 10 days, 0 is no effect, 100 is complete control
Summary of the method: as §1

[23] = test system: soybean (Glycine max); test: as above; settings: Postemergence, 10 days, 0 is no effect, 100 is complete control
Summary of the method: as §1

[24] = test system: wheat (Triticum aestivum); test: as above; settings: Postemergence, 10 days, 0 is no effect, 100 is complete control
Summary of the method: as §1

[25] = test system: barnyardgrass (Echinochloa crusgalli); test: Test B flooded paddy test, visual plant response rating 0-100; settings: 250 g ai/ha, Flood, applied to paddy water, evaluated after 13 days
Summary of the method: (§2)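 Each species was raised to two leaves before flooding to a 3 cm depth and dosing the water with compound. Injury was assessed by eye after 13 days under greenhouse conditions.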

[26] = test system: ducksalad (Heteranthera limosa); test: as above; settings: 250 g ai/ha, Flood, applied to paddy water, evaluated after 13 days
Summary of the method: as §2

[27] = test system: rice (Oryza sativa); test: as above; settings: 250 g ai/ha, Flood, applied to paddy water, evaluated after 13 days
Summary of the method: as §2

[28] = test system: sedge, umbrella (small-flower umbrella sedge, Cyperus difformis); test: as above; settings: 250 g ai/ha, Flood, applied to paddy water, evaluated after 13 days
Summary of the method: as §2

CSCCOC(=O)C1C=CC(NC(=O)C2(C)CN(c3cc(Cl)cc(Cl)c3)C(=O)O2)C1 (stereo not shown) [Compound 45]
Barnyardgrass plant response rating (0 to 100 scale) ([1]; 125 g ai/ha): 100
Barnyardgrass plant response rating (0 to 100 scale) ([1]; 500 g ai/ha): 100
Blackgrass plant response rating (0 to 100 scale) ([2]; 125 g ai/ha): 90
Blackgrass plant response rating (0 to 100 scale) ([2]; 500 g ai/ha): 90
Corn plant response rating (0 to 100 scale) ([3]; 125 g ai/ha): 20
Corn plant response rating (0 to 100 scale) ([3]; 500 g ai/ha): 60
Foxtail, Green plant response rating (0 to 100 scale) ([4]; 125 g ai/ha): 90
Foxtail, Green plant response rating (0 to 100 scale) ([4]; 500 g ai/ha): 100
Kochia plant response rating (0 to 100 scale) ([5]; 125 g ai/ha): 20
Kochia plant response rating (0 to 100 scale) ([5]; 500 g ai/ha): 100
Oat, Wild plant response rating (0 to 100 scale) ([6]; 125 g ai/ha): 80
Oat, Wild plant response rating (0 to 100 scale) ([6]; 500 g ai/ha): 90
Amaranth, Palmer plant response rating (0 to 100 scale) ([7]; 125 g ai/ha): 100
Amaranth, Palmer plant response rating (0 to 100 scale) ([7]; 500 g ai/ha): 100
Ragweed plant response rating (0 to 100 scale) ([8]; 125 g ai/ha): 20
Ragweed plant response rating (0 to 100 scale) ([8]; 500 g ai/ha): 70
Ryegrass, Italian plant response rating (0 to 100 scale) ([9]; 125 g ai/ha): 90
Ryegrass, Italian plant response rating (0 to 100 scale) ([9]; 500 g ai/ha): 90
Soybean plant response rating (0 to 100 scale) ([10]; 125 g ai/ha): 30
Soybean plant response rating (0 to 100 scale) ([10]; 500 g ai/ha): 60
Wheat plant response rating (0 to 100 scale) ([11]; 125 g ai/ha): 90
Wheat plant response rating (0 to 100 scale) ([11]; 500 g ai/ha): 90
Barnyardgrass plant response rating (0 to 100 scale) ([12]; 125 g ai/ha): 100
Barnyardgrass plant response rating (0 to 100 scale) ([12]; 500 g ai/ha): 100
Blackgrass plant response rating (0 to 100 scale) ([13]; 125 g ai/ha): 100
Blackgrass plant response rating (0 to 100 scale) ([13]; 500 g ai/ha): 100
Corn plant response rating (0 to 100 scale) ([14]; 125 g ai/ha): 100
Corn plant response rating (0 to 100 scale) ([14]; 500 g ai/ha): 100
Galium plant response rating (0 to 100 scale) ([15]; 125 g ai/ha): 70
Galium plant response rating (0 to 100 scale) ([15]; 500 g ai/ha): 70
Foxtail, Green plant response rating (0 to 100 scale) ([16]; 125 g ai/ha): 80
Foxtail, Green plant response rating (0 to 100 scale) ([16]; 500 g ai/ha): 90
Horseweed plant response rating (0 to 100 scale) ([17]; 125 g ai/ha): 80
Horseweed plant response rating (0 to 100 scale) ([17]; 500 g ai/ha): 80
Kochia plant response rating (0 to 100 scale) ([18]; 125 g ai/ha): 80
Kochia plant response rating (0 to 100 scale) ([18]; 500 g ai/ha): 80
Oat, Wild plant response rating (0 to 100 scale) ([19]; 125 g ai/ha): 90
Oat, Wild plant response rating (0 to 100 scale) ([19]; 500 g ai/ha): 90
Amaranth, Palmer / Pigweed, Palmer plant response rating (0 to 100 scale) ([20]; 125 g ai/ha): 100
Amaranth, Palmer / Pigweed, Palmer plant response rating (0 to 100 scale) ([20]; 500 g ai/ha): 100
Ragweed plant response rating (0 to 100 scale) ([21]; 125 g ai/ha): 70
Ragweed plant response rating (0 to 100 scale) ([21]; 500 g ai/ha): 80
Ryegrass, Italian plant response rating (0 to 100 scale) ([22]; 125 g ai/ha): 80
Ryegrass, Italian plant response rating (0 to 100 scale) ([22]; 500 g ai/ha): 80
Soybean plant response rating (0 to 100 scale) ([23]; 125 g ai/ha): 90
Soybean plant response rating (0 to 100 scale) ([23]; 500 g ai/ha): 90
Wheat plant response rating (0 to 100 scale) ([24]; 125 g ai/ha): 90
Wheat plant response rating (0 to 100 scale) ([24]; 500 g ai/ha): 90
Plant response rating, Barnyardgrass (0 to 100 scale, 0 is no effect and 100 is complete control) [25]: 75
Plant response rating, Ducksalad (0 to 100 scale, 0 is no effect and 100 is complete control) [26]: 100
Plant response rating, Rice (0 to 100 scale, 0 is no effect and 100 is complete control) [27]: 15
Plant response rating, Sedge, Umbrella (0 to 100 scale, 0 is no effect and 100 is complete control) [28]: 100
